Columns and labels:
[1] = Cytotoxicity against human 293T cells expressing Gluc assessed as inhibition of cell proliferation at 20 uM after 24 hrs by CCK8 assay relative to control; format: cell-based; conditions: 293T (HEK-293T) cells expressing Gluc
in vitro = conditions: human, 293T cells expressing Gluc
Description: Selectivity index, ratio of CC50 for human 293T cells expressing Gluc to EC50 for Influenza A virus WSN/33(H1N1)

[2] = Cytotoxicity against human 293T cells expressing Gluc assessed as inhibition of cell proliferation after 24 hrs by CCK8 assay; format: cell-based; conditions: 293T (HEK-293T) cells expressing Gluc
cells = conditions: Influenza A virus, HEK-293T
Description: Antiviral activity against Influenza virus A/WSN/33(H1N1) infected in human 293T cells assessed as inhibition of viral replication preincubated for 2 hrs followed by viral infection measured after 24 hrs by luciferase reporter gene assay

| Structure (SMILES) | inhibition at 24 h, 20 µM [1] | selectivity ratio (in vitro) | CC50 at 24 h [2] | EC50 (cells) |
| --- | --- | --- | --- | --- |
| C[C@H]1O[C@@H](O[C@H]2CC[C@@]3(C)[C@@H](CC[C@]4(C)[C@@H]3C=CC3=C5CC(C)(C)CC[C@]5(CO)C(=O)C[C@]34C)[C@]2(C)CO)[C@H](O)[C@@H](O[C@@H]2O[C@H](CO)[C@@H](O)[C@H](O)[C@H]2O)[C@H]1O | 9% |  |  |  |
| C[C@H]1O[C@@H](O[C@H]2CC[C@]3(C)[C@H]4C=C[C@]56OC[C@@]7(CCC(C)(C)C[C@H]75)[C@@H](O)C[C@@]6(C)[C@]4(C)CC[C@H]3C2(C)C)[C@H](O)[C@@H](O[C@@H]2O[C@H](CO)[C@@H](O)[C@H](O)[C@H]2O)[C@H]1O | 44.8% | 1.33 | 2.85 µM | 2.14 µM |
| C[C@H]1O[C@@H](O[C@H]2CC[C@@]3(C)[C@@H](CC[C@]4(C)[C@@H]3C=CC3=C5CC(C)(C)CC[C@]5(CO)[C@@H](O)C[C@]34C)[C@]2(C)CO)[C@H](O)[C@@H](O)[C@H]1O | 0% | 2.89 | 24.5 µM | 8.48 µM |
| C[C@H]1O[C@@H](O[C@H]2CC[C@@]3(C)[C@@H](CC[C@]4(C)[C@@H]3C=C[C@]35OC[C@@]6(CCC(C)(C)C[C@H]63)C(=O)C[C@]54C)[C@]2(C)CO)[C@H](O)[C@@H](O[C@@H]2O[C@H](CO)[C@@H](O)[C@H](O)[C@H]2O)[C@H]1O | 49.7% | 1.43 | 3.8 µM | 2.66 µM |
| CO[C@@H]1C=C2[C@@H]3CC(C)(C)CC[C@]3(CO)[C@@H](O)C[C@@]2(C)[C@]2(C)CC[C@H]3C(C)(C)[C@@H](O[C@@H]4O[C@H](CO[C@@H]5O[C@H](CO)[C@@H](O)[C@H](O)[C@H]5O)[C@@H](O[C@@H]5O[C@@H](C)[C@H](O)[C@@H](O)[C@H]5O)[C@H](O)[C@H]4O)CC[C@]3(C)[C@@H]12 | 0% |  |  |  |
| C[C@@H]1O[C@@H](O[C@H]2[C@H](O)[C@@H](O)[C@H](O[C@H]3CC[C@@]4(C)[C@@H](CC[C@]5(C)[C@@H]4C=CC4=C6CC(C)(C)CC[C@]6(CO)[C@@H](O)[C@H](O)[C@]45C)[C@]3(C)CO)O[C@@H]2CO[C@@H]2O[C@H](CO)[C@@H](O)[C@H](O)[C@H]2O)[C@H](O)[C@H](O)[C@H]1O | 0% | > 26.1 | > 200 µM | 7.67 µM |
| C[C@H]1O[C@@H](O[C@H]2CC[C@@]3(C)[C@@H](CC[C@]4(C)[C@@H]3C=CC3=C5CC(C)(C)CC[C@]5(CO)C(=O)[C@H](O)[C@]34C)[C@]2(C)CO)[C@H](O)[C@@H](O[C@@H]2O[C@H](CO)[C@@H](O)[C@H](O)[C@H]2O)[C@H]1O | 0% |  |  |  |
| C[C@@H]1O[C@@H](O[C@H]2[C@H](O)[C@@H](O)[C@H](O[C@H]3CC[C@]4(C)[C@H]5C=CC6=C7CC(C)(C)CC[C@]7(CO)[C@@H](O)[C@H](O)[C@@]6(C)[C@]5(C)CC[C@H]4C3(C)C)O[C@@H]2CO[C@@H]2O[C@H](CO)[C@@H](O)[C@H](O)[C@H]2O)[C@H](O)[C@H](O)[C@H]1O | 5.14% | > 19.8 | > 200 µM | 10.1 µM |
| C/C=C/C(=O)OC[C@H]1O[C@@H](O[C@H]2[C@@H](O)[C@@H](C)O[C@@H](O[C@H]3CC[C@@]4(C)[C@@H](CC[C@]5(C)[C@@H]4C=C[C@]46OC[C@@]7(CCC(C)(C)C[C@H]74)[C@@H](O)C[C@]65C)[C@]3(C)CO)[C@@H]2O)[C@H](O)[C@@H](O)[C@@H]1O | 44.2% | 0.79 | 7.02 µM | 8.92 µM |
| C[C@H]1O[C@@H](O[C@H]2CC[C@@]3(C)[C@@H](CC[C@]4(C)[C@@H]3C=CC3=C5C[C@@](C)(CO)CC[C@]5(CO)[C@@H](O)C[C@]34C)[C@]2(C)CO)[C@H](O)[C@@H](O[C@@H]2O[C@H](CO)[C@@H](O)[C@H](O)[C@H]2O)[C@H]1O | 5.87% |  |  |  |
| C[C@H]1O[C@@H](O[C@H]2CC[C@]3(C)C4=CC=C5[C@@H]6CC(C)(C)CC[C@]6(CO)[C@H](O)C[C@@]5(C)[C@]4(C)CC[C@H]3[C@]2(C)CO)[C@H](O)[C@@H](O[C@@H]2O[C@H](CO)[C@@H](O)[C@H](O)[C@H]2O)[C@H]1O | 1.39% | 1.75 | 38.2 µM | 21.8 µM |
| C[C@@H]1O[C@@H](O[C@H]2[C@H](O)[C@@H](O)[C@H](O[C@H]3CC[C@@]4(C)[C@@H](CC[C@]5(C)[C@@H]4CC=C4[C@@H]6CC(C)(C)CC[C@]6(CO)[C@@H](O)C[C@]45C)[C@]3(C)CO)O[C@@H]2CO[C@@H]2O[C@H](CO)[C@@H](O)[C@H](O)[C@H]2O)[C@H](O)[C@H](O)[C@H]1O | 0% | > 11.2 | > 200 µM | 17.9 µM |
| C[C@H]1O[C@@H](O[C@H]2CC[C@]3(C)C4=CC=C5[C@@H]6CC(C)(C)CC[C@]6(CO)[C@@H](O)C[C@@]5(C)[C@]4(C)CC[C@H]3[C@]2(C)CO)[C@H](O)[C@@H](O[C@@H]2O[C@H](CO)[C@@H](O)[C@H](O)[C@H]2O)[C@H]1O | 1.39% | 1.19 | 18.9 µM | 15.8 µM |
| CO[C@@H]1C=C2[C@@H]3CC(C)(C)CCC3=C(O)C(=O)[C@@]2(C)[C@]2(C)CC[C@H]3[C@](C)(CO)[C@@H](O[C@@H]4O[C@H](C)[C@H](O)[C@H](O[C@@H]5O[C@H](CO)[C@@H](O)[C@H](O)[C@H]5O)[C@H]4O)CC[C@]3(C)[C@@H]12 | 0% |  |  |  |
| NC(=O)c1ncn([C@@H]2O[C@H](CO)[C@@H](O)[C@H]2O)n1 [RIBAVIRIN] | 0% | > 11.4 | > 205 µM | 17.9 µM |

Reference: ChEMBL document CHEMBL4007499, “Anti-influenza triterpenoid saponins (saikosaponins) from the roots of Bupleurum marginatum var. stenophyllum” (Bioorg Med Chem Lett, 2017)
